Assay results published in patent publication US20080299538A1, “Pathogen Inactivation of Whole Blood” (CARIDIANBCT BIOTECHNOLOGIES, LLC, priority 2003, published 2008).
Where two headings read alike, the source gives them in different places.

Columns and labels:
S. epidermidis = assay: Low bacteria titer study in whole blood; assay type: cell-based; design: key to Bacteria detected (+) or not detected (−) after treatment: +: some of the replicates of the cultures in the panel grew in under 5 days; −: none of the replicates of the cultures in the panel grew in under 5 days; conditions: for Bacteria detected (+) or not detected (−) after treatment: 110 J/mLRBC (n = 3)
Excerpt: (§1) To test whether pathogen inactivation of whole blood was effective in inactivating clinically relevant levels of bacteria which may be present in the whole blood, low titer bacteria studies were done. After pathogen inactivation of whole blood, the whole blood was separated into a red blood cell (RBC) component and platelet rich plasma (PRP) component. A + symbol means that some of the replicates of the cultures in the panel grew in under 5 days. A − symbol means that none of the replicates of the cultures in the panel grew in under 5 days.

S. pyogenes = assay: Low bacteria titer study in whole blood; assay type: cell-based; design: key: +: some of the replicates of the cultures in the panel grew in under 5 days; −: none of the replicates of the cultures in the panel grew in under 5 days
Excerpt: as §1

A. baumannii = assay: Low bacteria titer study in whole blood; assay type: cell-based; design: key: +: some of the replicates of the cultures in the panel grew in under 5 days; −: none of the replicates of the cultures in the panel grew in under 5 days; conditions: 110 J/mLRBC (n = 3)
Excerpt: as §1

S. liquefaciens = assay: Low bacteria titer study in whole blood; assay type: cell-based; design: key: +: some of the replicates of the cultures in the panel grew in under 5 days; −: none of the replicates of the cultures in the panel grew in under 5 days
Excerpt: as §1

Y. enterocolitica = assay: Low bacteria titer study in whole blood; assay type: cell-based; design: key: +: some of the replicates of the cultures in the panel grew in under 5 days; −: none of the replicates of the cultures in the panel grew in under 5 days
Excerpt: as §1

canine parvovirus (CPV) = assay: Virus inactivation in whole blood; assay type: cell-based; conditions: as a function of illumination energy
white blood cells (WBCs) [1] = conditions: Allostimulation: treated stimulators
white blood cells (WBCs) [2] = assay: WBC proliferation in response to anti-CD3/CD28 (thymidine incorporation); conditions: for % inhibition of proliferation: CD3/28
white blood cells (WBCs) [3] = assay: WBC proliferation in response to PHA (thymidine incorporation)
white blood cells (WBCs) [4] = assay: Cytokine production in response to LPS (Cytometric Bead Assay); conditions: for % inhibition of IFN-γ production / % inhibition of IL-2 production / % inhibition of IL-4 production / % inhibition of IL-5 production / % inhibition of IL-10 production / % inhibition of TNFα production / % inhibition of IL-1β production / % inhibition of IL-6 production / % inhibition of IL-8 production: LPS
white blood cells (WBCs) [5] = assay: Cytokine production in response to anti-CD3/CD28 (Cytometric Bead Assay)
[6] = inflammatory cytokines, 22 J/mlRBC
[7] = inflammatory cytokines, 33 J/mlRBC
[8] = inflammatory cytokines, 44 J/mlRBC
[9] = anti-CD3/28, 33 J/mlRBC and above, compared to untreated cells
[10] = anti-CD3/28, TH1/TH2 cytokines, 22 J/mlRBC
[11] = anti-CD3/28, TH1/TH2 cytokines, 33 J/mlRBC
[12] = anti-CD3/28, TH1/TH2 cytokines, 44 J/mlRBC
[13] = anti-CD3/28, inflammatory cytokines, 22 J/mlRBC
[14] = anti-CD3/28, inflammatory cytokines, 33 J/mlRBC
[15] = anti-CD3/28, inflammatory cytokines, 44 J/mlRBC

Cc1cc2nc3c(=O)[nH]c(=O)nc-3n(C[C@H](O)[C@H](O)[C@H](O)CO)c2cc1C [riboflavin, 7,8-dimethyl-10-ribityl isoalloxazine]
Bacteria detected (+) or not detected (−) after treatment (S. epidermidis; PRP): −
Bacteria detected (+) or not detected (−) after treatment (S. epidermidis; RBC): +
bacterial growth in red blood cells (S. epidermidis; 110 J/mLRBC, RBC): grew
Bacteria detected (+) or not detected (−) after treatment (S. pyogenes; 80 J/mLRBC (n = 3), PRP): −
Bacteria detected (+) or not detected (−) after treatment (S. pyogenes; 110 J/mLRBC (n = 3), PRP): −
Bacteria detected (+) or not detected (−) after treatment (S. pyogenes; 110 J/mLRBC (n = 3), RBC): −
Bacteria detected (+) or not detected (−) after treatment (A. baumannii; PRP): −
Bacteria detected (+) or not detected (−) after treatment (A. baumannii; RBC): −
Bacteria detected (+) or not detected (−) after treatment (S. liquefaciens; 80 J/mLRBC (n = 3), PRP): −
Bacteria detected (+) or not detected (−) after treatment (S. liquefaciens; 80 J/mLRBC (n = 3), RBC): −
Bacteria detected (+) or not detected (−) after treatment (S. liquefaciens; 110 J/mLRBC (n = 3), PRP): −
Bacteria detected (+) or not detected (−) after treatment (S. liquefaciens; 110 J/mLRBC (n = 3), RBC): −
Bacteria detected (+) or not detected (−) after treatment (Y. enterocolitica; 80 J/mLRBC (n = 3), PRP): −
Bacteria detected (+) or not detected (−) after treatment (Y. enterocolitica; 80 J/mLRBC (n = 3), RBC): −
Bacteria detected (+) or not detected (−) after treatment (Y. enterocolitica; 110 J/mLRBC (n = 3), PRP): −
Bacteria detected (+) or not detected (−) after treatment (Y. enterocolitica; 110 J/mLRBC (n = 3), RBC): −
log reduction of virus (canine parvovirus (CPV)): increases linearly with respect to energy
% inhibition of proliferation (white blood cells (WBCs) [1]; 22 J/mlRBC): 93 ± 3%
% inhibition of proliferation (white blood cells (WBCs) [1]; 33 J/mlRBC): 96 ± 2%
% inhibition of proliferation (white blood cells (WBCs) [1]; 44 J/mlRBC): 95 ± 2%
% inhibition of proliferation (white blood cells (WBCs) [2]; 22 J/mlRBC): 93 ± 2%
% inhibition of proliferation (white blood cells (WBCs) [2]; 33 J/mlRBC): 99 ± 0%
% inhibition of proliferation (white blood cells (WBCs) [2]; 44 J/mlRBC): 99 ± 0%
induced proliferation of treated WBCs (white blood cells (WBCs) [2]; plate-bound anti-CD3 plus anti-CD28 antibodies, 33 J/mlRBC and above, 3 days of incubation): no detectable induced proliferation
% inhibition of proliferation (white blood cells (WBCs) [3]; 22 J/mlRBC): 98 ± 1%
% inhibition of proliferation (white blood cells (WBCs) [3]; 33 J/mlRBC): 99 ± 1%
induced proliferation of treated WBCs (white blood cells (WBCs) [3]; 33 J/mlRBC and above, 3 days of incubation): no detectable induced proliferation
% inhibition of proliferation (white blood cells (WBCs) [3]; 44 J/mlRBC): 99 ± 0%
inflammatory cytokine production in response to LPS (white blood cells (WBCs) [4]): reduced with treatment, but not to medium control levels
TH1/TH2 cytokine levels induced by LPS (white blood cells (WBCs) [4]; 44 J/mlRBC): reduced to medium control levels
% inhibition of IFN-γ production (white blood cells (WBCs) [4]; TH1/TH2 cytokines, 22 J/mlRBC): 63 ± 71%
% inhibition of IL-2 production (white blood cells (WBCs) [4]; TH1/TH2 cytokines, 22 J/mlRBC): 63 ± 54%
% inhibition of IL-4 production (white blood cells (WBCs) [4]; TH1/TH2 cytokines, 22 J/mlRBC): 59 ± 65%
% inhibition of IL-5 production (white blood cells (WBCs) [4]; TH1/TH2 cytokines, 22 J/mlRBC): 89 ± 2%
% inhibition of IL-10 production (white blood cells (WBCs) [4]; TH1/TH2 cytokines, 22 J/mlRBC): 66 ± 21%
% inhibition of TNFα production (white blood cells (WBCs) [4]; TH1/TH2 cytokines, 22 J/mlRBC): 45 ± 53%
% inhibition of IFN-γ production (white blood cells (WBCs) [4]; TH1/TH2 cytokines, 33 J/mlRBC): 93 ± 8%
% inhibition of IL-4 production (white blood cells (WBCs) [4]; TH1/TH2 cytokines, 33 J/mlRBC): 90 ± 4%
% inhibition of IL-10 production (white blood cells (WBCs) [4]; TH1/TH2 cytokines, 33 J/mlRBC): 94 ± 4%
% inhibition of TNFα production (white blood cells (WBCs) [4]; TH1/TH2 cytokines, 33 J/mlRBC): 94 ± 5%
% inhibition of IFN-γ production (white blood cells (WBCs) [4]; TH1/TH2 cytokines, 44 J/mlRBC): 93 ± 7%
% inhibition of IL-2 production (white blood cells (WBCs) [4]; TH1/TH2 cytokines, 44 J/mlRBC): 88 ± 4%
% inhibition of IL-4 production (white blood cells (WBCs) [4]; TH1/TH2 cytokines, 44 J/mlRBC): 90 ± 4%
% inhibition of IL-5 production (white blood cells (WBCs) [4]; TH1/TH2 cytokines, 44 J/mlRBC): 91 ± 6%
% inhibition of IL-10 production (white blood cells (WBCs) [4]; TH1/TH2 cytokines, 44 J/mlRBC): 99 ± 1%
% inhibition of TNFα production (white blood cells (WBCs) [4]; TH1/TH2 cytokines, 44 J/mlRBC): 94 ± 8%
% inhibition of IL-1β production (white blood cells (WBCs) [4]; [6]): 68 ± 19%
% inhibition of IL-6 production (white blood cells (WBCs) [4]; [6]): 84 ± 8%
% inhibition of IL-8 production (white blood cells (WBCs) [4]; [6]): 85 ± 8%
% inhibition of IL-10 production (white blood cells (WBCs) [4]; [6]): 63 ± 21%
% inhibition of TNFα production (white blood cells (WBCs) [4]; [6]): 54 ± 35%
% inhibition of IL-1β production (white blood cells (WBCs) [4]; [7]): 91 ± 8%
% inhibition of IL-6 production (white blood cells (WBCs) [4]; [7]): 96 ± 3%
% inhibition of IL-8 production (white blood cells (WBCs) [4]; [7]): 96 ± 4%
% inhibition of IL-10 production (white blood cells (WBCs) [4]; [7]): 94 ± 5%
% inhibition of TNFα production (white blood cells (WBCs) [4]; [7]): 92 ± 8%
% inhibition of IL-1β production (white blood cells (WBCs) [4]; [8]): 98 ± 3%
% inhibition of IL-6 production (white blood cells (WBCs) [4]; [8]): 99 ± 1%
% inhibition of IL-8 production (white blood cells (WBCs) [4]; [8]): 99 ± 1%
% inhibition of IL-10 production (white blood cells (WBCs) [4]; [8]): 99 ± 1%
% inhibition of TNFα production (white blood cells (WBCs) [4]; [8]): 98 ± 2%
inflammatory cytokine production in response to anti-CD3/28 antibodies (white blood cells (WBCs) [5]): significantly reduced
TH1/TH2 cytokine production induced by anti-CD3/28 stimulation (white blood cells (WBCs) [5]; all energies tested): significantly reduced
cytokine production in response to anti-CD3/anti-CD28 antibodies blocked (white blood cells (WBCs) [5]; all energies tested, with the exception of IL-4 and IL-8 at 22 J/mlRBC): > 90%
inhibition of IFN-γ production (white blood cells (WBCs) [5]; [9]): > 90%
inhibition of IL-2 production (white blood cells (WBCs) [5]; [9]): > 90%
inhibition of TNF-α production (white blood cells (WBCs) [5]; [9]): > 90%
% inhibition of IFN-γ production (white blood cells (WBCs) [5]; [10]): 99 ± 1%
% inhibition of IL-2 production (white blood cells (WBCs) [5]; [10]): 91 ± 7%
% inhibition of IL-4 production (white blood cells (WBCs) [5]; [10]): 84%
% inhibition of IL-5 production (white blood cells (WBCs) [5]; [10]): 94 ± 3%
% inhibition of IL-10 production (white blood cells (WBCs) [5]; [10]): 99 ± 1%
% inhibition of TNFα production (white blood cells (WBCs) [5]; [10]): 92 ± 15%
% inhibition of IFN-γ production (white blood cells (WBCs) [5]; [11]): 100 ± 0%
% inhibition of IL-2 production (white blood cells (WBCs) [5]; [11]): 99 ± 1%
% inhibition of IL-4 production (white blood cells (WBCs) [5]; [11]): 95 ± 3%
% inhibition of IL-5 production (white blood cells (WBCs) [5]; [11]): 99 ± 1%
% inhibition of IL-10 production (white blood cells (WBCs) [5]; [11]): 100 ± 0%
% inhibition of TNFα production (white blood cells (WBCs) [5]; [11]): 99 ± 1%
% inhibition of IFN-γ production (white blood cells (WBCs) [5]; [12]): 100 ± 0%
% inhibition of IL-2 production (white blood cells (WBCs) [5]; [12]): 100 ± 0%
% inhibition of IL-4 production (white blood cells (WBCs) [5]; [12]): 97 ± 2%
% inhibition of IL-5 production (white blood cells (WBCs) [5]; [12]): 99 ± 1%
% inhibition of IL-10 production (white blood cells (WBCs) [5]; [12]): 100 ± 0%
% inhibition of TNFα production (white blood cells (WBCs) [5]; [12]): 100 ± 0%
% inhibition of IL-1β production (white blood cells (WBCs) [5]; [13]): 98 ± 2%
% inhibition of IL-6 production (white blood cells (WBCs) [5]; [13]): 99 ± 2%
% inhibition of IL-8 production (white blood cells (WBCs) [5]; [13]): 89%
% inhibition of IL-10 production (white blood cells (WBCs) [5]; [13]): 99 ± 1%
% inhibition of IL-12 p70 production (white blood cells (WBCs) [5]; [13]): 98 ± 4%
% inhibition of TNFα production (white blood cells (WBCs) [5]; [13]): 90 ± 12%
% inhibition of IL-1β production (white blood cells (WBCs) [5]; [14]): 100 ± 0%
% inhibition of IL-6 production (white blood cells (WBCs) [5]; [14]): 100 ± 0%
% inhibition of IL-8 production (white blood cells (WBCs) [5]; [14]): 98 ± 2%
% inhibition of IL-10 production (white blood cells (WBCs) [5]; [14]): 100 ± 0%
% inhibition of IL-12 p70 production (white blood cells (WBCs) [5]; [14]): 99 ± 2%
% inhibition of TNFα production (white blood cells (WBCs) [5]; [14]): 100 ± 0%
% inhibition of IL-1β production (white blood cells (WBCs) [5]; [15]): 100 ± 0%
% inhibition of IL-6 production (white blood cells (WBCs) [5]; [15]): 100 ± 0%
% inhibition of IL-8 production (white blood cells (WBCs) [5]; [15]): 100 ± 0%
% inhibition of IL-10 production (white blood cells (WBCs) [5]; [15]): 100 ± 0%
% inhibition of IL-12 p70 production (white blood cells (WBCs) [5]; [15]): 97 ± 4%
% inhibition of TNFα production (white blood cells (WBCs) [5]; [15]): 100 ± 0%
